From US10822325B2, “Human GLUT5 specific inhibitors and methods of treatment” (UNM RAINFOREST INNOVATIONS, priority 2015, dated 2020)
“Also recorded” adds a separate entry of the source.

Columns and labels:
GlcPSe = target: T1, GlcPSe (Staphylococcus epidermidis, UniProt A0A0H2VG78); assay: Glucose uptake by GlcPSe in right-side-out vesicles of JM1100 E. coli cells; format: biochemical; details: 2 mM compound, RSO vesicles, 30 μM C14-glucose, one minute
T1 construct: made in house; host or cells: Escherichia coli JM1100 (pBAD); right-side-out membrane vesicles
T1 sequence (A0A0H2VG78 1-446): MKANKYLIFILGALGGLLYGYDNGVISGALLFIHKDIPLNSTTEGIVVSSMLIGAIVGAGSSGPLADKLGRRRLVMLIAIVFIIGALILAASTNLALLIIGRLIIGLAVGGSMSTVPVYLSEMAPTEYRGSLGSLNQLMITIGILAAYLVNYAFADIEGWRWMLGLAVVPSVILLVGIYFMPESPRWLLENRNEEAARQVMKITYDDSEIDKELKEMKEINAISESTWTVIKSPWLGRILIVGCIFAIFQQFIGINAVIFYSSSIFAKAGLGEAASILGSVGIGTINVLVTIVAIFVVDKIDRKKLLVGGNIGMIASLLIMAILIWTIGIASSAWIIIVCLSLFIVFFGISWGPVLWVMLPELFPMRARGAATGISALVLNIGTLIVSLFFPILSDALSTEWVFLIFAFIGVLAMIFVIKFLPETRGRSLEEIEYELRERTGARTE
Procedure: (§1) Glucose transport assay for GlcPSe, wild-type and F348H mutant, was performed as described previouslyl^16. GlcPSe was cloned into the pBAD vector (Invitrogen) with C-terminal 6×His tag. F348H mutation was done with the site-directed mutagenesis method^37. GlcPSe proteins were expressed in the glucose transporter deficient Escherichia coli strain JM1100. Cells were grown at 37° C., in Luria Broth medium, with 100 μg/mL ampicillin. Protein expression was induced with 0.3 mM L-arabinose at O.D.600 nm 0.6. After 3 hours, cells were harvested by centrifugation at 2,500 g for 5 min. The right-side-out (RSO) membrane vesicles of JM1100 E. coli cells were prepared as described previouslyl^16,39,40. Transport assay was initiated by the addition of ^14C-radiolabeled glucose (Moravek Biochemicals) to 50 μL RSO vesicles in 100 mM KPi buffer pH 7.5, at O.D.600 nm of 2.0. After one minute, the transport was stopped and the radioactivity was measured as described below. When inhibitors were used, they were incubated with RSO vesicles 1 minute before transport initiation.
Given the partial conservation of the MSNBA binding site in other GLUTs and GlcPSe, we checked whether MSNBA inhibits GLUT1-4 or GlcPSe. Glucose transport of GLUT1, GLUT2, GLUT3 and GLUT4 and fructose transport of GLUT2 were assayed by the entrance counter-flow method in proteoliposomes constructed with the respective recombinant human GLUT produced in insect cells. Glucose transport of GlcPSe was measured in right-side-out (RSO) vesicles of JM1100 E. coli cells (that lack endogenous glucose transport) expressing GlcPSe.

GlcPSe,F348H = target: T2, GlcPSe,F348H (Staphylococcus epidermidis, UniProt A0A0H2VG78, F348H); assay: Glucose uptake by GlcPSe,F348H mutant in right-side-out vesicles of JM1100 E. coli cells; format: biochemical, bacterial; details: for effect on GlcPSe,F348H glucose transport: 2 mM compound, RSO vesicles
T2 construct: made in house; host or cells: Escherichia coli JM1100 (pBAD); right-side-out membrane vesicles
T2 sequence (A0A0H2VG78 whole entry F348H): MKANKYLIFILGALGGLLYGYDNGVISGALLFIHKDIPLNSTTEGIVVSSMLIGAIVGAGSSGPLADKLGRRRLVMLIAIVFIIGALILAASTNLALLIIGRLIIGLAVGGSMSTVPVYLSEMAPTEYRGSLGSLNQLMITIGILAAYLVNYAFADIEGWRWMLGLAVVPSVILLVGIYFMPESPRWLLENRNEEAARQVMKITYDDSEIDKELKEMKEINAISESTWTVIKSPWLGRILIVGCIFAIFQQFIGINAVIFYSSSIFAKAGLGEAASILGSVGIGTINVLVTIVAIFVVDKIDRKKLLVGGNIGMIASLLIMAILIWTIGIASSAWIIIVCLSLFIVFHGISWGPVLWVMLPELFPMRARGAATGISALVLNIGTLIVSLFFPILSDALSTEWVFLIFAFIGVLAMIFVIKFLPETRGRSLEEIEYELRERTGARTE
Procedure: as §1
As MSNBA seemed to be specific for GLUT5, we focused on the residues in the MSNBA predicted binding site that were different from GLUT5 compared to GLUT1-4 and GlcPSe. Among these, H387 of GLUT5 potentially interacts with the […] group of MSNBA (FIG. 4b and FIG. 6), but is a Phe in GLUT1-4 as well as GlcPSe (FIG. 4c). To test if this residue is important for MSNBA inhibition, we constructed and expressed three mutant proteins: GlcPSe,F348H, GLUT1F379H, and GLUT5H387F. As with the wild-type proteins, GLUT1F379H and GLUT5H387F were recombinantly produced in insect cells, purified and reconstituted in proteoliposomes. Their transport activity was assayed by the entrance counter-flow method in proteolipsomes. Glucose transport of GlcPSe,F348H was determined in JM1100 E. coli cells in right-side-out (RSO) vesicles.

Compound | effect on GlcPSe glucose transport (GlcPSe) | effect on GlcPSe,F348H glucose transport (GlcPSe,F348H) | inhibition at 2000 µM (GlcPSe,F348H; read-out: inhibition of GlcPSe,F348H transport activity) [%]
O=C(CCc1ccc(O)cc1)c1c(O)cc(O)cc1O [phloretin, reference compound] | inhibited | still inhibited | –
C=C1[C@@H](C)[C@H]2[C@H](Cc3ccccc3)NC(=O)[C@]23OC(=O)/C=C/[C@H](O)CCC[C@@H](C)C/C=C/[C@H]3[C@@H]1O [cytochalasin B, reference compound] | inhibited | decreased cytochalasin B inhibition | –
CS(=O)(=O)c1ccc(Nc2ccc3c(c2)OCO3)c([N+](=O)[O-])c1 [MSNBA, N-[4-(methylsulfonyl)-2-nitrophenyl]-1,3-benzodioxol-5-amine] | did not affect; also recorded: did not influence | – | 75
